Source: PMC9699089 (Pathogens, 2022)
Where a name gives a salt, the structure may show the parent alone.

What was measured:
[1] = system: L. donovani (MHOM/IN/00/DEVI) promastigotes; test: In vitro antileishmanial activity on promastigotes, MTT assay; assay type: cell-based; conditions: Leishmania donovani, 72 h incubation, mean +/- SD of three independent experiments
Method: L. donovani (MHOM/IN/00/DEVI) used in this study was provided by the CNR Leishmania (Montpellier, France). The effects of the tested compounds on the growth of L. donovani (MHOM/IN/00/DEVI) promastigotes were assessed by MTT assay. Briefly, promastigotes in log-phase in Schneider’s medium supplemented with 20% fetal calf serum (FCS), 2 mM L-glutamine and antibiotics (100 U/mL penicillin and 100 µg/mL streptomycin), were incubated at an average density of 10^6 parasites/mL in sterile 96-well plates with various concentrations of compounds previously dissolved in DMSO (final concentration less than 0.5% v/v), in duplicate. […] Duplicate assays were performed for each sample. After the 72 h incubation period at 27 °C, parasite metabolic activity was determined. Each well was microscopically examined for precipitate formation. To each well was added 10 µL of 10 mg/mL MTT [3-(4,5-dimethylthiazol-2-yl)-2,5-diphenyltetrazolium bromide)] solution followed by 4 h incubation time. The enzyme reaction was stopped by addition of 100 µL of 50% isopropanol/10% sodium dodecyl sulfate. Plates were vigorously shaken (300 rpm) for 10 min, and the absorbance was measured at 570 nm with 630 nm as reference wavelength in a BIOTEK ELx808 Absorbance Microplate Reader (Agilent Technologies, Les Ulis, France). […] IC50 of the parasite’s growth (half maximal inhibitory concentration or IC50 values) were then calculated from the obtained experimental results using a previously described regression program. IC50 values were calculated from three independent experiments.

[2] = system: T. brucei brucei AnTat 1.9; test: In vitro antitrypanosomal activity, Alamar Blue assay; assay type: cell-based, Trypanosoma brucei brucei; conditions: Trypanosoma brucei, slender bloodstream trypomastigotes, AnTat 1.9 strain; mean +/- SD of three independent experiments; read-out: Trypanosoma brucei brucei IC50 Values Trypanos Antat 1.9
Method: The effects of the tested compounds on the growth of T. brucei brucei were assessed using an Alamar Blue® assay described by Räz et al. T. brucei brucei AnTat 1.9 ([…], Belgium) was cultured in MEM with Earle's salts, supplemented according to the protocol of Baltz et al. […] All doses were tested in duplicate. Appropriate controls treated with solvents 0.9% NaCl or DMSO or with suramin, pentamidine, eflornithine, and fexinidazole (reference drugs purchased from Sigma Aldrich and Fluorochem, UK) were added to each set of experiments. After 69 h incubation period at 37 °C, 10 μL of the viability marker Alamar Blue (Fisher) was added to each well, and the plates were incubated for 5 h. The plates were read in a PerkinElmer ENSPIRE (Germany) microplate reader using an excitation wavelength of 530 nm and an emission wavelength of 590 nm.

SMILES	melting point	other results
CN(C)CCNCc1cc(-c2ccccc2)c2ccc3c(-c4ccccc4)cc(CNCCN(C)C)nc3c2n1 (as salt: ammonium) [Compound 1a, 2,9-Bis[(2-dimethylaminoethyl)aminomethyl]-4,7-diphenyl-1,10-phenanthroline]	179 to 181 °C	–
CN(C)CCCNCc1cc(-c2ccccc2)c2ccc3c(-c4ccccc4)cc(CNCCCN(C)C)nc3c2n1 (as salt: ammonium) [Compound 1b, 2,9-Bis[(3-dimethylaminopropyl)aminomethyl]-4,7-diphenyl-1,10-phenanthroline]	161 to 163 °C	–
CN(C)CCCCNCc1cc(-c2ccccc2)c2ccc3c(-c4ccccc4)cc(CNCCCCN(C)C)nc3c2n1 (as salt: ammonium) [Compound 1c, 2,9-Bis[(4-dimethylaminobutyl)aminomethyl]-4,7-diphenyl-1,10-phenanthroline]	111 to 113 °C	–
CN(C)CCCCCNCc1cc(-c2ccccc2)c2ccc3c(-c4ccccc4)cc(CNCCCCCN(C)C)nc3c2n1 (as salt: ammonium) [Compound 1d, 2,9-Bis[(5-dimethylaminopentyl)aminomethyl]-4,7-diphenyl-1,10-phenanthroline]	119 to 121 °C	–
CN1CCN(CCNCc2cc(-c3ccccc3)c3ccc4c(-c5ccccc5)cc(CNCCN5CCN(C)CC5)nc4c3n2)CC1 (as salt: ammonium) [Compound 1e]	185 to 187 °C	–
CN1CCN(CCCNCc2cc(-c3ccccc3)c3ccc4c(-c5ccccc5)cc(CNCCCN5CCN(C)CC5)nc4c3n2)CC1 (as salt: ammonium) [Compound 1f]	205 to 207 °C	–
CN1CCN(CCCCNCc2cc(-c3ccccc3)c3ccc4c(-c5ccccc5)cc(CNCCCCN5CCN(C)CC5)nc4c3n2)CC1 (as salt: ammonium) [Compound 1g]	207 to 209 °C	–
c1ccc(-c2cc(CNCCN3CCOCC3)nc3c2ccc2c(-c4ccccc4)cc(CNCCN4CCOCC4)nc23)cc1 (as salt: ammonium) [Compound 1h]	194 to 196 °C	–
c1ccc(-c2cc(CNCCCN3CCOCC3)nc3c2ccc2c(-c4ccccc4)cc(CNCCCN4CCOCC4)nc23)cc1 (as salt: ammonium) [Compound 1i]	174 to 176 °C	–
c1ccc(-c2cc(CNCCN3CCCCC3)nc3c2ccc2c(-c4ccccc4)cc(CNCCN4CCCCC4)nc23)cc1 (as salt: ammonium) [Compound 1j]	192 to 194 °C	–
c1ccc(-c2cc(CNCCCN3CCCCC3)nc3c2ccc2c(-c4ccccc4)cc(CNCCCN4CCCCC4)nc23)cc1 (as salt: ammonium) [Compound 1k]	141 to 143 °C	–
c1ccc(-c2cc(CNCCCN3CCCC3)nc3c2ccc2c(-c4ccccc4)cc(CNCCCN4CCCC4)nc23)cc1 (as salt: ammonium) [Compound 1l]	145 to 147 °C	–
c1ccc(-c2cc(CNCCc3ccccn3)nc3c2ccc2c(-c4ccccc4)cc(CNCCc4ccccn4)nc23)cc1 (as salt: ammonium) [Compound 1m]	165 to 167 °C	–
c1ccc(-c2cc(CNCCc3cccnc3)nc3c2ccc2c(-c4ccccc4)cc(CNCCc4cccnc4)nc23)cc1 (as salt: ammonium) [Compound 1n]	164 to 166 °C	–
c1ccc(-c2cc(CNCCc3ccncc3)nc3c2ccc2c(-c4ccccc4)cc(CNCCc4ccncc4)nc23)cc1 (as salt: ammonium) [Compound 1o]	147 to 149 °C	–
c1ccc(-c2cc(CNCCCc3ccncc3)nc3c2ccc2c(-c4ccccc4)cc(CNCCCc4ccncc4)nc23)cc1 (as salt: ammonium) [Compound 1p]	99 to 101 °C	–
C[C@@H]1[C@H](O)[C@@H](C)/C=C/C=C/C=C/C=C/C=C/C=C/C=C/[C@H](O[C@@H]2O[C@H](C)[C@@H](O)[C@H](N)[C@@H]2O)C[C@@H]2O[C@](O)(C[C@@H](O)C[C@@H](O)[C@H](O)CC[C@@H](O)C[C@@H](O)CC(=O)O[C@H]1C)C[C@H](O)[C@H]2C(=O)O [Amphotericin B, reference compound]	–	IC50 [1]: 0.1 ± 0.04 µM
CSc1ccc(OCc2ncc([N+](=O)[O-])n2C)cc1 [Fexinidazole, reference compound]	–	IC50 [2]: 0.59 ± 0.039 µM
Cc1ccc(C(=O)Nc2ccc(S(=O)(=O)O)c3cc(S(=O)(=O)O)cc(S(=O)(=O)O)c23)cc1NC(=O)c1cccc(NC(=O)Nc2cccc(C(=O)Nc3cc(C(=O)Nc4ccc(S(=O)(=O)O)c5cc(S(=O)(=O)O)cc(S(=O)(=O)O)c45)ccc3C)c2)c1 [Suramine, reference compound]	–	IC50 [2]: 0.03 ± 0.003 µM
